Assay results reported in patent publication US11013714B2, “Use of homoeriodictyol (HED) for reducing the gastric acid secretion-stimulating effect of n-acetyl-4-aminophenol (Paracetamol)” (SYMRISE AG, priority 2016, dated 2021).
Values joined by “and” are separate entries in the source; they are usually repeats but may differ in a detail not shown here. Identical values can stand only once. Like-named read-outs stand apart in the source and are kept apart here.

Columns and labels:
HGT-1 cells [1] = details: cited from earlier work
TAS2R43 = biological target: T1, TAS2R43 (Homo sapiens, UniProt P59537); assay: Own experiments on bitter receptor TAS2R43
T1 sequence (P59537 1-309): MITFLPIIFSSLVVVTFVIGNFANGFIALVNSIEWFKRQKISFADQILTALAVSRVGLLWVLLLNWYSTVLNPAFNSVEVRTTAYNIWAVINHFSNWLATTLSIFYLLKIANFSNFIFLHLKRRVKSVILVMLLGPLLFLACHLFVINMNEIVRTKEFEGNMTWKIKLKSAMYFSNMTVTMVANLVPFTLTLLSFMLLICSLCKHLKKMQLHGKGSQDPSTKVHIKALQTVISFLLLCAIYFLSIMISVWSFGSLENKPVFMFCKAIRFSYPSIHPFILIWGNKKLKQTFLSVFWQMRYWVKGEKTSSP

HGT-1 cells [2] = assay: Proton secretion in HGT-1 cells (intracellular pH, SNARF-1-AM dye); assay type: cell-based, human
Experimental: Human parietal cells (human gastric tumour cell line, HGT-1) were used as cellular model. These were provided by Dr. C. Laboisse (Laboratory of Pathological Anatomy, Nantes, France). The cells are cultured at standard conditions at 37° C., 5% CO2 in DMEM (Dulbecco's Modified […] Medium) with 4 g/L glucose, 10% FBS, 2% L-glutamine and 1% Penicillin/Streptomycin. For measuring the intracellular proton concentration, the cells are treated with Trypsin/EDTA, the cellular viability was determined with Trypan blue staining and 100 000 cells/well were seeded in black 96-well plates. […] The cells in the 96-well plates are washed once with Krebs-Hepes-buffer (KRHP) and incubated with the dye in a concentration of 3 μM dissolved in KRHP for 30 min at 37° C. and 5% CO2. Afterwards, the cells are washed twice with KRHP and substances stimulating gastric acid secretion, as for example 3 mM caffeine, 0.3 mM Theobromine or 3 mM Paracetamol alone or in combination with substances for reducing the gastric acid stimulating effect of the above substances, for example Homoeriodictyol (HED), in various concentrations in phenol red free DMEM in a volume of 100 μL were added; as a further control, the substances stimulating gastric acid secretion as named above were tested alone. Homoeriodictyol is dissolved in double distilled water. The final concentration of solvent, which is added to the cells, is at most 1%. The fluorescent dye is excited at the wave length of 488 nm and the emission is measured at 580 nm and 640 nm. […] For the calibration curve, the cells are treated with a potassium buffer in different pH values of from 7.2 to 8.2 and 2 μM Nigericin. Nigericin equilibrates the intracellular and extracellular pH value so that the intracellular pH value can be defined. The intracellular H^+-concentration is obtained from the intracellular pH value. The intracellular proton index (IPX) is calculated by log 2 transformation of the ratio of treated cells and untreated cells (control) ([…].; Somoza, M. M.; Hofmann, T.; Somoza, V., Mol Nutr Food Res 2012, 56, 325-335; Rubach, M.; Lang, R.; Hofmann, T.; Somoza, V., Ann N Y Acad Sci 2008, 1126, 310-4; […].; Hofmann, T.; Somoza, V., J Agric Food Chem 2010, 58, 4153-61; Weiss, […].; Blumberg, S.; Frank, O.; Hofmann, T.; Somoza, V., J Agric Food Chem 2010, 58, 1976-85; Liszt, K. I.; Walker, J.; Somoza, V., J Agric Food Chem 2012, 60, 7022-7030; Walker, J.; Hell, J.; Liszt, […].; Hofmann, T.; Somoza, V., J Agric Food Chem 2012, 60, 1405-12). The number of indicated replicates relates to technical replicates (tr) or the number of total replicates (n), which results from the number of technical replicates multiplied with the number of biological replicates. […] Statistics: one-way Anova with Holm-Sidak post-hoc test. Significant differences (p<0.05) are indicated by letters.

TAS2R39 = biological target: T2, TAS2R39 (Homo sapiens, UniProt P59534); details: Roland et al., J. Agric. Food Chem. 2013; cited from earlier work
T2 sequence (P59534 1-338): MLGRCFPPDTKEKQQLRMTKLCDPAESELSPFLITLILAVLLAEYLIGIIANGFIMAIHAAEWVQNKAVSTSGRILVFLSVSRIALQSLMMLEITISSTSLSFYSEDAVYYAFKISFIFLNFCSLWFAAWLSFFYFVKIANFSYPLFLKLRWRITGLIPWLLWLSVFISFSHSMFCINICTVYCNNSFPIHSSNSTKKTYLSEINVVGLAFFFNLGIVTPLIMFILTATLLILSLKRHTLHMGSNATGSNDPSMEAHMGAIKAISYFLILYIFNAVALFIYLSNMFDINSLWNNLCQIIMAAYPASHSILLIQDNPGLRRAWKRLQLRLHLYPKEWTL

## Cn1c(=O)c2c(ncn2C)n(C)c1=O [Caffeine, caffeine, reference compound]
HGT-1 cells [1]; 3 mM caffeine alone (DMEM), 10 minutes stimulation
  percentage increase (positive values) or decrease (negative values) of the proton secretion, mean: 54.80%
HGT-1 cells [1]; 3 mM caffeine alone (DMEM), 10 minutes stimulation, listed as caffeine
  percentage increase (positive values) or decrease (negative values) of the proton secretion, mean: 55%

## COc1cc(C2CC(=O)c3c(O)cc(O)cc3O2)ccc1O (centres unmarked) [HED, 3′-Methoxy-4′,5,7-trihydroxy flavanone]
TAS2R43
  effect at receptor type TAS2R43: antagonist
HGT-1 cells [2]; 3 mM Paracetamol + 0.003 mM HED, 10 minutes
  percentage increase (positive values) or decrease (negative values) of the proton secretion, mean: 10.96%
HGT-1 cells [2]; 3 mM Paracetamol + 0.03 mM HED, 10 minutes
  percentage increase (positive values) or decrease (negative values) of the proton secretion, mean: 7% and 6.57%
HGT-1 cells [2]; 3 mM Paracetamol + 0.3 mM HED, 10 minutes
  percentage increase (positive values) or decrease (negative values) of the proton secretion, mean: −46.24%
HGT-1 cells [2]; 3 mM Paracetamol, addition of 0.3 mM HED, compared to control without active substances
  effect on constitutive acid secretion: significant reduction of the constitutive acid secretion
HGT-1 cells [2]; addition of 0.003 or 0.03 mM HED
  proton secretion induced by 3 mM Paracetamol: reduced
HGT-1 cells [2]; simultaneous incubation with 3 mM Paracetamol and 0.003 mM HED
  proton secretion increased by: 11%
HGT-1 cells [2]; simultaneous incubation with 3 mM Paracetamol and 0.3 mM HED
  proton secretion reduced by: 46%
TAS2R39
  effect at receptor type TAS2R39: agonist
HGT-1 cells [1]; 0.3 mM Theobromine + 0.003 mM HED, 10 minutes
  percentage increase (positive values) or decrease (negative values) of the proton secretion, mean: 21.56%
HGT-1 cells [1]; 0.3 mM Theobromine + 0.03 mM HED, 10 minutes
  percentage increase (positive values) or decrease (negative values) of the proton secretion, mean: 14% and 13.79%
HGT-1 cells [1]; 0.3 mM Theobromine + 0.3 mM HED, 10 minutes
  percentage increase (positive values) or decrease (negative values) of the proton secretion, mean: −16.92%
HGT-1 cells [1]; 3 mM caffeine + 0.03 mM HED, 10 minutes
  percentage increase (positive values) or decrease (negative values) of the proton secretion, mean: 38%
HGT-1 cells [1]; 3 mM caffeine + 0.3 mM HED, 10 minutes
  percentage increase (positive values) or decrease (negative values) of the proton secretion, mean: 20% and 20.20%
HGT-1 cells [1]; simultaneous incubation with 0.3 mM Theobromine and 0.3 mM HED
  proton secretion decreased by: 17%
HGT-1 cells [1]; sole HED, without gastric acid secretion-stimulating substances (WO 2014111436 A1)
  effect on the proton secretion in HGT-1-cells: no significant effect

## CC(=O)Nc1ccc(O)cc1 [Paracetamol, N-(4-Hydroxyphenyl)acetamide]
HGT-1 cells [2]; 3 mM Paracetamol alone (DMEM), 10 minutes stimulation
  percentage increase (positive values) or decrease (negative values) of the proton secretion, mean: 24% and 24.10%

## Cn1cnc2c1c(=O)[nH]c(=O)n2C [Theobromine, reference compound]
HGT-1 cells [1]; 0.3 mM Theobromine alone (DMEM), 10 minutes stimulation
  percentage increase (positive values) or decrease (negative values) of the proton secretion, mean: 21% and 20.92%
